One block for each molecule: values may come before it.
How the values were obtained:
[1] = test system: MDA-MB-453; conditions: 72 h
How it was run: (§1)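 To measure viability, fluorescence at 560/590 nm was read after 2.5 µl CellTiter-Blue had been added for 2 h at 37 °C. Cells from breast cancer lines had been seeded in 20 µl suspension onto 384-well plates pre-loaded with compound dissolved in 5 µl medium and kept for 72 h. EC50 comes from a fitted percent-inhibition dose-response curve censored at the highest concentration, after per-plate normalisation to vehicle and a positive kill control, Z'-factor checks, and removal of rows with zero drug sensitivity score.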

[2] = test system: SK-BR-3; conditions: 72 h
How it was run: as §1

[3] = test system: HDQ-P1; conditions: 72 h
Description: (§2)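 Drug sensitivity and resistance testing (DSRT) of breast cancer cell lines in 384-well plates, 5 concentrations in 10-fold dilutions over a compound-specific 10,000-fold range. After 72 h, cytotoxicity was read by CellTox Green fluorescence and viability by CellTiter-Glo luminescence (multiplexed), normalised to DMSO and benzethonium chloride controls. EC50 is the inflection point of the fitted dose-response curve (bottom asymptote free, so it can be relative for partial curves) and is censored at the highest tested concentration. Rows with DSS 0 (no meaningful response) were excluded.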

[4] = test system: MDA-MB-468; conditions: 72 h
Description: as §2

[5] = test system: MFM-223; conditions: 72 h
Description: as §2

[6] = test system: BT-474; conditions: 72 h
Description: as §2

[7] = test system: CAL-148; conditions: 72 h
Description: as §2

[8] = test system: HCC1143; conditions: 72 h
Description: as §2

[9] = test system: CAL-148; conditions: 72 h; remark: listed apart in the source
How it was run: as §1

[10] = test system: CAL-51; conditions: 72 h
How it was run: as §1

[11] = test system: MDA-MB-468; conditions: 72 h; remark: listed apart in the source
How it was run: as §1

[12] = test system: MFM-223; conditions: 72 h; remark: listed apart in the source
How it was run: as §1

[13] = test system: BT-474; conditions: 72 h; remark: listed apart in the source
How it was run: as §1

[14] = test system: MCF-10A; test: normalised response (% of control), CellTiter-Glo; higher = more viable cells (100 = DMSO, 0 = benzethonium chloride kill control); conditions: incubation time: 72 h
How it was run: (§3)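 Breast cancer cell lines were exposed for 72 h in 384-well plates to compound at 5 concentrations, 10-fold apart, covering a 10,000-fold range fixed for each compound. Plates were read for CellTox Green fluorescence and CellTiter-Glo luminescence and normalised to 0.1 % DMSO (100) and a positive kill control (0). Each value is the normalised signal at one concentration of the series.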

[15] = test system: HDQ-P1; test: as above; conditions: incubation time: 72 h
How it was run: as §3

[16] = test system: MFM-223; test: as above; conditions: incubation time: 72 h
How it was run: as §3

[17] = test system: MDA-MB-453; test: as above; conditions: incubation time: 72 h
How it was run: as §3

[18] = test system: Hs578T; test: as above; conditions: incubation time: 72 h
How it was run: as §3

[19] = test system: BT-474; test: as above; conditions: incubation time: 72 h
How it was run: as §3

[20] = test system: CAL-148; test: as above; conditions: incubation time: 72 h
How it was run: as §3

[21] = test system: BT-549; test: as above; conditions: incubation time: 72 h
How it was run: as §3

[22] = test system: CAL-51; test: as above; conditions: incubation time: 72 h
How it was run: as §3

[23] = test system: MDA-MB-436; conditions: 72 h
How it was run: as §1

[24] = test system: BT-549; conditions: 72 h
How it was run: as §1

[25] = test system: HCC1937; conditions: 72 h
Description: as §2

[26] = test system: MDA-MB-453; conditions: 72 h; remark: listed apart in the source
Description: as §2

[27] = test system: HDQ-P1; conditions: 72 h; remark: listed apart in the source
How it was run: as §1

[28] = test system: DU-4475; conditions: 72 h
How it was run: as §1

[29] = test system: CAL-120; conditions: 72 h
How it was run: as §1

[30] = test system: Hs578T; conditions: 72 h
How it was run: as §1

[31] = test system: MDA-MB-231; conditions: 72 h
Description: as §2

[32] = test system: MCF-10A; conditions: 72 h
Description: as §2

[33] = test system: CAL-85-1; conditions: 72 h
Description: as §2

[34] = test system: HCC1599; conditions: 72 h
Description: as §2

[35] = test system: Hs578T; conditions: 72 h; remark: listed apart in the source
Description: as §2

[36] = test system: HCC1599; conditions: 72 h; remark: listed apart in the source
How it was run: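 Per-plate normalisation used 0.1 % DMSO and a positive kill control. Breast cancer cell lines (20 µl suspension) were seeded into 384-well plates containing compound at 5 concentrations in 10-fold steps across a compound-specific 10,000-fold range, incubated for 72 h, and read first for CellTox Green fluorescence (485/520 nm), then for CellTiter-Glo luminescence. EC50 was fitted from the dose-response curves and censored at the top concentration.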

[37] = test system: CAL-85-1; conditions: 72 h; remark: listed apart in the source
How it was run: as §1

[38] = test system: MDA-MB-231; conditions: 72 h; remark: listed apart in the source
How it was run: as §1

[39] = test system: HCC1937; conditions: 72 h; remark: listed apart in the source
How it was run: as §1

[40] = test system: HCC1599; conditions: 72 h; remark: listed apart in the source
How it was run: as §1

[41] = test system: HCC1143; conditions: 72 h; remark: listed apart in the source
How it was run: as §1

Structure (SMILES): CC(C)NC[C@@H](C(=O)N1CCN(c2ncnc3c2[C@H](C)C[C@H]3O)CC1)c1ccc(Cl)cc1 [GDC-0068]
EC50, CellTox Green [3]: > 10 µM | EC50, CellTox Green [4]: 2.64 µM | EC50, CellTox Green [5]: 1.33 µM | EC50, CellTox Green [6]: 5.81 µM | EC50, CellTox Green [7]: 0.221 µM

Structure (SMILES): CN1CCc2c(c3ccccc3n2Cc2ccc(C(=O)NO)cc2)C1 [Tubastatin A]
EC50, CellTox Green [8]: 0.297 µM | EC50, CellTox Green [6]: > 10 µM

Structure (SMILES): Nc1nc(Cl)nc2c1ncn2[C@@H]1O[C@H](CO)[C@@H](O)[C@@H]1F [Clofarabine] (10000 nM)
normalised response [14]: 56.9% | normalised response [15]: 73.7% | normalised response [16]: 92.3% | normalised response [17]: 75.3% | normalised response [18]: 68.2% | normalised response [19]: 66.3% | normalised response [20]: 40.5% | normalised response [21]: 27.4% | normalised response [22]: 17%

Structure (SMILES): CC[C@@H]1C(=O)N(C)c2cnc(Nc3ccc(C(=O)N[C@H]4CC[C@H](N5CCN(CC6CC6)CC5)CC4)cc3OC)nc2N1C(C)C [Volasertib] (1000 nM)
normalised response [14]: 46.9% | normalised response [15]: 64.7% | normalised response [16]: 51.2% | normalised response [17]: 62.4% | normalised response [18]: 25.4% | normalised response [19]: 66.4% | normalised response [20]: 79.9% | normalised response [21]: 29.1% | normalised response [22]: 26.9%

Structure (SMILES): NC(=O)NO [Hydroxyurea] (100000 nM)
normalised response [14]: 105% | normalised response [15]: 97% | normalised response [16]: 104% | normalised response [17]: 106% | normalised response [18]: 104% | normalised response [19]: 97.2% | normalised response [20]: 102% | normalised response [21]: 77.4% | normalised response [22]: 29%

Structure (SMILES): Cc1c(C(=O)Nc2ccc(N3C[C@@H](C)O[C@@H](C)C3)nc2)cccc1-c1ccc(OC(F)(F)F)cc1 [Erismodegib]
EC50, CellTox Green [31]: > 10 µM

Second part, led by results:

EC50, CellTiter-Blue viability [1]: 7.52 µM | EC50, CellTiter-Blue viability [2]: 9.2 µM
Structure (SMILES): CCCCCOC(=O)Nc1nc(=O)n([C@@H]2O[C@H](C)[C@@H](O)[C@H]2O)cc1F [Capecitabine]

EC50, CellTiter-Blue viability [1]: 0.0157 µM
Structure (SMILES): C[C@@H]1C[C@H]2[C@@H]3CCC4=CC(=O)C=C[C@]4(C)[C@@]3(F)[C@@H](O)C[C@]2(C)[C@@]1(O)C(=O)CO [Dexamethasone]

EC50, CellTiter-Blue viability [1]: 0.436 µM | EC50, CellTiter-Blue viability [11]: 0.131 µM | EC50, CellTiter-Blue viability [2]: 0.116 µM | EC50, CellTiter-Blue viability [13]: 0.192 µM
Structure (SMILES): NC1(c2ccc(-c3nc4ccn5c(=O)[nH]nc5c4cc3-c3ccccc3)cc2)CCC1 [MK-2206]
EC50, CellTiter-Blue viability [9]: 0.79 µM | EC50, CellTiter-Blue viability [10]: 0.942 µM | EC50, CellTiter-Blue viability [12]: 0.369 µM | EC50, CellTox Green [7]: 0.478 µM

EC50, CellTiter-Blue viability [1]: 5.97 µM | EC50, CellTiter-Blue viability [23]: 7.53 µM | EC50, CellTiter-Blue viability [11]: 4.42 µM | EC50, CellTiter-Blue viability [24]: 3.42 µM
Structure (SMILES): CC/C(=C(\c1ccccc1)c1ccc(OCCN(C)C)cc1)c1ccccc1 [Tamoxifen]
EC50, CellTox Green [25]: 0.325 µM | EC50, CellTox Green [26]: 7.24 µM

EC50, CellTiter-Blue viability [23]: 0.0138 µM | EC50, CellTiter-Blue viability [2]: > 1 µM
Structure (SMILES): COc1cc2c(Oc3ccc(NC(=O)C4(C(=O)Nc5ccc(F)cc5)CC4)cc3F)ccnc2cc1OCCCN1CCOCC1 [Foretinib]
EC50, CellTiter-Blue viability [27]: 0.157 µM | EC50, CellTiter-Blue viability [28]: 0.748 µM | EC50, CellTiter-Blue viability [9]: 0.675 µM | EC50, CellTiter-Blue viability [10]: 0.473 µM | EC50, CellTiter-Blue viability [29]: 0.787 µM | EC50, CellTiter-Blue viability [12]: 0.0625 µM | EC50, CellTiter-Blue viability [30]: 0.756 µM | EC50, CellTox Green [31]: 0.129 µM | EC50, CellTox Green [4]: 0.374 µM | EC50, CellTox Green [8]: 0.693 µM | EC50, CellTox Green [7]: 0.712 µM

EC50, CellTiter-Glo [36]: 0.0148 µM
Structure (SMILES): CCc1cnn2c(NCc3ccc[n+]([O-])c3)cc(N3CCCC[C@H]3CCO)nc12 [Dinaciclib]
EC50, CellTox Green [31]: 0.00807 µM | EC50, CellTox Green [32]: 0.0774 µM | EC50, CellTox Green [3]: 0.00827 µM | EC50, CellTox Green [4]: 0.0171 µM | EC50, CellTox Green [33]: 0.022 µM | EC50, CellTox Green [34]: 0.0141 µM | EC50, CellTox Green [5]: 0.022 µM | EC50, CellTox Green [35]: 0.0264 µM | EC50, CellTox Green [6]: 0.0132 µM | EC50, CellTox Green [7]: 0.0283 µM

EC50, CellTiter-Blue viability [1]: 0.082 µM | EC50, CellTiter-Blue viability [23]: 0.0255 µM | EC50, CellTiter-Blue viability [38]: 0.0416 µM | EC50, CellTiter-Blue viability [39]: 0.0372 µM | EC50, CellTiter-Blue viability [11]: 0.0281 µM | EC50, CellTiter-Blue viability [40]: 0.105 µM | EC50, CellTiter-Blue viability [2]: 0.0498 µM | EC50, CellTiter-Blue viability [41]: 0.0269 µM | EC50, CellTiter-Blue viability [13]: 0.123 µM | EC50, CellTiter-Blue viability [24]: 0.0336 µM | EC50, CellTiter-Glo [36]: 4.45 µM
Structure (SMILES): CO[C@H](C(=O)[C@@H](O)[C@@H](C)O)[C@@H]1Cc2cc3cc(O[C@H]4C[C@@H](O[C@@H]5C[C@@H](O)[C@H](O)[C@@H](C)O5)[C@H](O)[C@@H](C)O4)c(C)c(O)c3c(O)c2C(=O)[C@H]1O[C@H]1C[C@@H](O[C@@H]2C[C@@H](O)[C@@H](O[C@@H]3C[C@](C)(O)[C@H](O)[C@@H](C)O3)[C@@H](C)O2)[C@H](O)[C@@H](C)O1 [Plicamycin]
EC50, CellTiter-Blue viability [27]: 0.0845 µM | EC50, CellTiter-Blue viability [37]: 0.0837 µM | EC50, CellTiter-Blue viability [28]: 0.0488 µM | EC50, CellTiter-Blue viability [9]: 0.0736 µM | EC50, CellTiter-Blue viability [10]: 0.124 µM | EC50, CellTiter-Blue viability [29]: 0.0471 µM | EC50, CellTiter-Blue viability [12]: 0.168 µM | EC50, CellTiter-Blue viability [30]: 0.0308 µM | EC50, CellTox Green [32]: 2.85 µM | EC50, CellTox Green [4]: 0.39 µM | EC50, CellTox Green [33]: 8.29 µM | EC50, CellTox Green [26]: 7.42 µM | EC50, CellTox Green [35]: 6.42 µM
